{"source": "patent US8148320B2", "about": "“Peptide inhibitors of ABL kinases” (New York Blood Center, Inc., priority 2005, dated 2012)", "key": {"[1]": {"system": "c-AbI kinase", "assay": "c-AbI kinase assay with biotinylated model substrate peptide and 32P-γ-ATP", "assay_type": "biochemical", "conditions": "for Fold Change (PEP): Vmax relative to PEP", "protocol": "(§1) AbI kinase. His-tagged, uncapped active c-AbI, E46 through C-terminus (isoform 1b) (kind gift of Tony Koleske, Yale University, New Haven, Conn.), was produced and purified from baculovirus as described (Tanis et al., 2003) following treatment of insect cells with 30 μM STI-571 (Novartis Pharma AG, Basel, Switzerland) for 48 hrs prior to cell lysis. The expressed protein was affinity purified on nickel-nitriloacetic acid agarose, washed to remove the inhibitor, and subsequently purified by ion-exchange chromatography using a Mono S column (Amersham Biosciences, Piscataway, N.J.). GST fusions of c-AbI SH2 domain wild type and SH2 domain containing the R171K mutation, and mammalian expression plasmid containing c-AbI-GST (isoform 1b, with the GST at the C-terminus) were obtained from Bruce Mayer (University of Connecticut Health Center, Farmington, Conn.).\nKinase assay. Measurement of kinase activity was essentially as described in (Tanis et al., 2003), using biotinylated model substrate peptide GGEAIYAAPFKK (SEQ ID NO: 16), (Brasher and Van Etten, 2000; Songyang et al., 1995) and ^32P-γ-ATP. SAM2 streptavidin-coated membrane (Promega Corφoration, Madison Wis.) was used to capture the substrate. Kinase assay mixtures contained 50 mM Tris-HCI pH 7.5, 10 mM MgCl2, 1 mM EGTA, 2 mM dithiothreitol, 0.01% Brij 35, and 100 μM ATP, 2 nM AbI kinase, substrate peptides, and Abil ligand peptides as indicated. Reactions were carried out for 5 min. at 30° C. To evaluate c-AbI kinase activity in LnCAP cell lines, cells were treated with pervanadate for 10 min. prior to cell lysis, and immunoprecipitates from lysed cells were tested using GST-Crk as substrate."}, "[2]": {"biological_target": "T1, AbI SH2 domain (Homo sapiens, UniProt P00519)", "T1 construct": "GST-tagged AbI SH2 domain; gift of Bruce Mayer (University of Connecticut Health Center)", "T1 sequence (P00519 127-217 limits assumed)": "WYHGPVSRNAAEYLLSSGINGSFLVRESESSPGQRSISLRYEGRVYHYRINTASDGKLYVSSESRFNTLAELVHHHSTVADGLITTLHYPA", "assay": "Surface plasmon resonance (Biacore) binding of biotinylated Abi1 peptides to GST-tagged AbI SH2 domain", "protocol": "as §1\nSurface Plasmon Resonance Assay. Surface plasmon resonance assay was performed using a Biacore 3000 instrument (BlAcore Inc., Piscataway, N.J.). Biotinylated 14-residue peptides, pY213 or Y213, were coupled to surface of streptavidin-coated (SA) biosensor chip (BIAcore Inc., Piscataway, N.J.). […] Sensograms (plots of changes in response unit on the surface as a function of time) derived were analyzed using the software BIAeval 3.0. […]"}, "[3]": {"conditions": "concentrations lower than 2 mM, 100 μM substrate peptide"}, "[4]": {"conditions": "peptide concentration 2 mM, 100 μM substrate peptide"}, "[5]": {"conditions": "increasing peptide concentrations, 100 μM substrate peptide"}}, "note": "“Also recorded” adds a separate entry of the source. Like-named read-outs stand apart in the source and are kept apart here. Where no end group is shown, it is not given here.", "data": [{"substance": "GGEAIYAAPFKK (also: biotinylated, site not given here) [PEP, reference compound]", "values": [{"measurement": "Km", "setting": "[1]; Km of substrate peptide PEP alone", "value": "21.2 ± 3.37", "unit": "µM"}, {"measurement": "Fold Change (PEP)", "setting": "[1]; PEP alone", "value": 1.00}, {"measurement": "Vmax", "setting": "[1]; substrate peptide PEP alone, no Abi1 peptide, mean ± s.d., n=3", "value": "157.79 ± 9.29", "unit": "pmol/min-μg"}]}, {"substance": "GTLSRTNPLTQKPPSPPMSGRGTLGRNTPYKTLEPVKPPTVPNDpYMTSP [Pro-pY213]", "values": [{"measurement": "Kd (in words)", "setting": "[2]; GST-SH2, Biacore, data not shown", "value": "low millimolar range"}, {"measurement": "effect on c-AbI kinase activity (in words)", "setting": "[1]", "value": "showed inhibition"}, {"measurement": "effect on c-AbI kinase activity (in words)", "setting": "[1]; [3]", "value": "no inhibition was observed"}, {"measurement": "effect on c-AbI kinase activity (in words)", "setting": "[1]; peptide 1.5 mM", "value": "decrease of activity"}, {"measurement": "effect on c-AbI kinase activity (in words)", "setting": "[1]; peptide 0.75 to 1.25 mM", "value": "increased the kinase activity"}, {"measurement": "effect on c-AbI kinase activity (in words)", "setting": "[1]; peptide 1.75 and 2 mM", "value": "inhibition"}, {"measurement": "effect on c-AbI kinase activity (in words)", "setting": "[1]; [4]", "value": "enhanced the inhibitory effect"}]}, {"substance": "Pro-F198: Abi1 peptide spanning residues 169-203 with Y198 to F198 replacement (GTLSRTNPPTQKPPSPPMSGRGTLGRNTPFKTLEP; UniProt Q8IZP0 169-203, looked up, variant Y198F)", "values": [{"measurement": "effect on c-AbI kinase activity (in words)", "setting": "[1]; [5]", "value": "effect was lost"}]}, {"substance": "Pro-Y198: Abi1 peptide spanning residues 169-203, with PXXP motif PPSPP and Y198, excludes pY213 sequence", "values": [{"measurement": "effect on c-AbI kinase activity (in words)", "setting": "[1]; [5]", "value": "increased inhibition"}]}, {"substance": "Y213: 14-residue Abi1 peptide containing nonphosphorylated tyrosine 213 (VKPPTVPNDYMTSP; not fully specified) [Peptide Y213]", "values": [{"measurement": "effect on c-AbI kinase activity (in words)", "setting": "[1]", "value": "showed inhibition; also recorded: most potent inhibition"}, {"measurement": "Vmax", "setting": "[1]; Abi1 peptide at 2 mM, 5-min assay, increasing substrate peptide, mean ± s.d., n=3", "value": "2.90 ± 1.16", "unit": "pmol/min-μg"}, {"measurement": "Km", "setting": "[1]; Km of substrate peptide, Abi1 peptide at 2 mM", "value": "16.3 ± 0.6", "unit": "µM"}, {"measurement": "Km", "setting": "[1]; Km of substrate peptide, Y213 at 0.1", "value": "14.9 ± 2.74", "unit": "µM"}, {"measurement": "Km", "setting": "[1]; Km of substrate peptide, Y213 at 0.25", "value": "16.5 ± 7.29", "unit": "µM"}, {"measurement": "Fold Change (PEP)", "setting": "[1]; Abi1 peptide at 2 mM", "value": 0.018}, {"measurement": "Fold Change (PEP)", "setting": "[1]; Y213 at 0.1", "value": 0.71}, {"measurement": "Fold Change (PEP)", "setting": "[1]; Y213 at 0.25", "value": 0.55}, {"measurement": "Vmax", "setting": "[1]; Y213 peptide at 0.1 (mM)", "value": "112.11 ± 7.80", "unit": "pmol/min-μg"}, {"measurement": "Vmax", "setting": "[1]; Y213 peptide at 0.25", "value": "86.68 ± 19.71", "unit": "pmol/min-μg"}, {"measurement": "effect on c-AbI kinase activity (in words)", "setting": "[1]; [3]", "value": "significant kinase inhibition at lower concentrations than the pY213 peptide"}, {"measurement": "effect on c-AbI kinase activity (in words)", "setting": "[1]; [4]", "value": "more significant reduction of the kinase activity than pY213"}]}, {"substance": "pY213: 14-residue Abi1 peptide containing phosphorylated tyrosine 213; Abi1 14-mer sequence vkpptvpndymtsp (SEQ ID NO:5) (VKPPTVPNDYMTSP)", "values": [{"measurement": "Kd", "setting": "[2]; peptide on SA chip, varying AbI SH2 concentration, 1:1 binding model, read-out: dissociation constant, KD", "value": 33.2, "unit": "nM"}]}]}
